In article PMC12090182, “Repurposing of the RIPK1-Selective Benzo[1,4]oxazepin-4-one Scaffold for the Development of a Type III LIMK1/2 Inhibitor” (ACS Chemical Biology, 2025):

Tested on: MRC-9 cells
Test: Multiplex high-content viability assessment
Assay type: cell-based
Conditions: human fibroblast
Summary of the method: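 HEK293T and U2OS cells (DMEM) and MRC-9 fibroblasts (EMEM) exposed to compounds at 1 and 10 μM. Live-cell confocal imaging of cell shape and fluorescence before and at 12, 24 and 48 h. Normalized to 0.1% DMSO; biological duplicates with SEM.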

[1] = 1 µM, 0 h, biological replicate 1
[2] = 1 µM, 0 h, biological replicate 2
[3] = 1 µM, 12 h, biological replicate 1
[4] = 1 µM, 12 h, biological replicate 2
[5] = 1 µM, 24 h, biological replicate 1
[6] = 1 µM, 24 h, biological replicate 2
[7] = 1 µM, 48 h, biological replicate 1
[8] = 1 µM, 48 h, biological replicate 2
[9] = 10 µM, 0 h, biological replicate 1
[10] = 10 µM, 0 h, biological replicate 2
[11] = 10 µM, 12 h, biological replicate 1
[12] = 10 µM, 12 h, biological replicate 2
[13] = 10 µM, 24 h, biological replicate 1
[14] = 10 µM, 24 h, biological replicate 2
[15] = 10 µM, 48 h, biological replicate 1
[16] = 10 µM, 48 h, biological replicate 2

CC(C)C(=O)Nc1ncc(-c2cc(C(F)F)nn2-c2c(Cl)cccc2Cl)s1 [LIMKi3]
Cell count normalized to cells treated with DMSO control [1]: 1.034 | Cell count per well [1]: 155 | Population Fragmented Nuclei (%) [1]: 25.33% | Population Healthy Nuclei (%) [1]: 53.33% | Population Pyknosed Nuclei (%) [1]: 21.33% | Population apoptotic cell (%) [1]: 34.38% | Population cell that influence microtubule strucutre (%) [1]: 18.75% | Population with increased mitochondrial mass (%) [1]: 7.50% | Population with membrane disruption (%) [1]: 1.25% | Cell count normalized to cells treated with DMSO control [2]: 0.869 | Cell count per well [2]: 155 | Population Fragmented Nuclei (%) [2]: 31.13% | Population Healthy Nuclei (%) [2]: 41.06% | Population Pyknosed Nuclei (%) [2]: 27.81% | Population apoptotic cell (%) [2]: 38.10% | Population cell that influence microtubule strucutre (%) [2]: 48.39% | Population with increased mitochondrial mass (%) [2]: 11.29% | Population with membrane disruption (%) [2]: 8.06% | Cell count normalized to cells treated with DMSO control [3]: 0.9165 | Cell count per well [3]: 138 | Population Fragmented Nuclei (%) [3]: 20.00% | Population Healthy Nuclei (%) [3]: 63.70% | Population Pyknosed Nuclei (%) [3]: 16.30% | Population apoptotic cell (%) [3]: 22.73% | Population cell that influence microtubule strucutre (%) [3]: 25.58% | Population with increased mitochondrial mass (%) [3]: 5.81% | Population with membrane disruption (%) [3]: 1.16% | Cell count normalized to cells treated with DMSO control [4]: 0.8765 | Cell count per well [4]: 146 | Population Fragmented Nuclei (%) [4]: 30.94% | Population Healthy Nuclei (%) [4]: 44.60% | Population Pyknosed Nuclei (%) [4]: 24.46% | Population apoptotic cell (%) [4]: 35.29% | Population cell that influence microtubule strucutre (%) [4]: 75.81% | Population with increased mitochondrial mass (%) [4]: 11.29% | Population with membrane disruption (%) [4]: 20.97% | Cell count normalized to cells treated with DMSO control [5]: 0.9351 | Cell count per well [5]: 141 | Population Fragmented Nuclei (%) [5]: 15.83% | Population Healthy Nuclei (%) [5]: 69.06% | Population Pyknosed Nuclei (%) [5]: 15.11% | Population apoptotic cell (%) [5]: 33.33% | Population cell that influence microtubule strucutre (%) [5]: 33.33% | Population with increased mitochondrial mass (%) [5]: 7.29% | Population with membrane disruption (%) [5]: 0.00% | Cell count normalized to cells treated with DMSO control [6]: 0.8553 | Cell count per well [6]: 141 | Population Fragmented Nuclei (%) [6]: 38.85% | Population Healthy Nuclei (%) [6]: 41.73% | Population Pyknosed Nuclei (%) [6]: 19.42% | Population apoptotic cell (%) [6]: 40.74% | Population cell that influence microtubule strucutre (%) [6]: 62.07% | Population with increased mitochondrial mass (%) [6]: 12.07% | Population with membrane disruption (%) [6]: 20.69% | Cell count normalized to cells treated with DMSO control [7]: 0.9887 | Cell count per well [7]: 150 | Population Fragmented Nuclei (%) [7]: 26.21% | Population Healthy Nuclei (%) [7]: 62.07% | Population Pyknosed Nuclei (%) [7]: 11.72% | Population apoptotic cell (%) [7]: 52.94% | Population cell that influence microtubule strucutre (%) [7]: 31.11% | Population with increased mitochondrial mass (%) [7]: 6.67% | Population with membrane disruption (%) [7]: 0.00% | Cell count normalized to cells treated with DMSO control [8]: 0.8351 | Cell count per well [8]: 136 | Population Fragmented Nuclei (%) [8]: 42.54% | Population Healthy Nuclei (%) [8]: 45.52% | Population Pyknosed Nuclei (%) [8]: 11.94% | Population apoptotic cell (%) [8]: 37.50% | Population cell that influence microtubule strucutre (%) [8]: 77.05% | Population with increased mitochondrial mass (%) [8]: 14.75% | Population with membrane disruption (%) [8]: 9.84% | Cell count normalized to cells treated with DMSO control [9]: 1.054 | Cell count per well [9]: 158 | Population Fragmented Nuclei (%) [9]: 19.48% | Population Healthy Nuclei (%) [9]: 62.99% | Population Pyknosed Nuclei (%) [9]: 17.53% | Population apoptotic cell (%) [9]: 44.44% | Population cell that influence microtubule strucutre (%) [9]: 22.68% | Population with increased mitochondrial mass (%) [9]: 9.28% | Population with membrane disruption (%) [9]: 0.00% | Cell count normalized to cells treated with DMSO control [10]: 1.02 | Cell count per well [10]: 182 | Population Fragmented Nuclei (%) [10]: 18.39% | Population Healthy Nuclei (%) [10]: 59.77% | Population Pyknosed Nuclei (%) [10]: 21.84% | Population apoptotic cell (%) [10]: 50.00% | Population cell that influence microtubule strucutre (%) [10]: 38.46% | Population with increased mitochondrial mass (%) [10]: 6.73% | Population with membrane disruption (%) [10]: 4.81% | Cell count normalized to cells treated with DMSO control [11]: 1.2685 | Cell count per well [11]: 191 | Population Fragmented Nuclei (%) [11]: 21.91% | Population Healthy Nuclei (%) [11]: 61.24% | Population Pyknosed Nuclei (%) [11]: 16.85% | Population apoptotic cell (%) [11]: 40.00% | Population cell that influence microtubule strucutre (%) [11]: 92.66% | Population with increased mitochondrial mass (%) [11]: 15.60% | Population with membrane disruption (%) [11]: 0.92% | Cell count normalized to cells treated with DMSO control [12]: 1.111 | Cell count per well [12]: 185 | Population Fragmented Nuclei (%) [12]: 27.68% | Population Healthy Nuclei (%) [12]: 47.46% | Population Pyknosed Nuclei (%) [12]: 24.86% | Population apoptotic cell (%) [12]: 52.27% | Population cell that influence microtubule strucutre (%) [12]: 92.86% | Population with increased mitochondrial mass (%) [12]: 14.29% | Population with membrane disruption (%) [12]: 21.43% | Cell count normalized to cells treated with DMSO control [13]: 1.273 | Cell count per well [13]: 192 | Population Fragmented Nuclei (%) [13]: 24.02% | Population Healthy Nuclei (%) [13]: 64.25% | Population Pyknosed Nuclei (%) [13]: 11.73% | Population apoptotic cell (%) [13]: 42.86% | Population cell that influence microtubule strucutre (%) [13]: 93.04% | Population with increased mitochondrial mass (%) [13]: 32.17% | Population with membrane disruption (%) [13]: 1.74% | Cell count normalized to cells treated with DMSO control [14]: 1.116 | Cell count per well [14]: 184 | Population Fragmented Nuclei (%) [14]: 31.58% | Population Healthy Nuclei (%) [14]: 47.95% | Population Pyknosed Nuclei (%) [14]: 20.47% | Population apoptotic cell (%) [14]: 48.57% | Population cell that influence microtubule strucutre (%) [14]: 92.68% | Population with increased mitochondrial mass (%) [14]: 21.95% | Population with membrane disruption (%) [14]: 6.10% | Cell count normalized to cells treated with DMSO control [15]: 1.325 | Cell count per well [15]: 201 | Population Fragmented Nuclei (%) [15]: 25.53% | Population Healthy Nuclei (%) [15]: 63.83% | Population Pyknosed Nuclei (%) [15]: 10.64% | Population apoptotic cell (%) [15]: 70.00% | Population cell that influence microtubule strucutre (%) [15]: 98.33% | Population with increased mitochondrial mass (%) [15]: 42.50% | Population with membrane disruption (%) [15]: 0.83% | Cell count normalized to cells treated with DMSO control [16]: 1.216 | Cell count per well [16]: 198 | Population Fragmented Nuclei (%) [16]: 37.50% | Population Healthy Nuclei (%) [16]: 43.23% | Population Pyknosed Nuclei (%) [16]: 19.27% | Population apoptotic cell (%) [16]: 51.35% | Population cell that influence microtubule strucutre (%) [16]: 90.36% | Population with increased mitochondrial mass (%) [16]: 21.69% | Population with membrane disruption (%) [16]: 12.05%
